We go through five compounds from patent publication EP0008361A1, “Halogen-substituted thiophene derivatives and method for their preparation” (priority 1978, dated 1980).

Where two headings read alike, the source gives them in different places.

Data set [1] has as its system Stubenfliegen-Larven (Musca domestica). The experiment in a line: Breeding test with housefly larvae on treated nutrient medium. The format is in vivo. As to conditions: development observed over one week; for mortality at 10 µg/mL / mortality at 25 µg/mL: Musca domestica, 168 h, read-out: Mortalitätsrate; for mortality at 10 µg/mL: Wirkstoffkonzentration 10 ppm; for mortality at 25 µg/mL: Wirkstoffkonzentration 25 ppm; for Mortalitätsrate: Wirkstoffkonzentration 50 ppm. The protocol:
Zuchtversuch mit Stubenfliegen-Larven (Musca domestica)
50 g eines Nährbodens aus Bäckerhefe, Trockenmilch, Wasser und Agar werden in warmem Zustand gründlich mit der wäßrigen Wirkstoffaufbereitung gemischt.
Nach dem Erkalten belegt man den Nährboden mit ca. 0,1 ml Fliegeneiern und beobachtet deren Entwicklung über eine Woche.

In the next data set the test system is Blattläuse (Aphis fabae). As to conditions: evaluated after 24 hours.
Data set [2] has as its system Spinnmilben (Tetranychus telarius). The data set can be described thus: whole plant or invertebrate. As to conditions: 144 h, read-out: Mortalitätsrate.
In data set [3] the test system is Wurzelgallennemathoden (Meloidogyne incognita). The experiment in a line: Action on root-knot nematodes, drench of tomato plants in infested compost soil. In kind it is in vivo. Particulars: 30 ml drench, roots rated after 6 to 8 weeks. The protocol: Wirkung auf Wurzelgallennemathoden (Meloidogyne incognita)
Junge Tomatenpflanzen werden in je 500 g Komposterde gepflanzt, die stark mit Wurzelgallennematoden infiziert ist.
Nach 3 Tagen erfolgt die Behandlung mit der wäßrigen Wirkstoffaufbereitung durch Gießen von 30 ml Aufbereitung.
Nach 6 bis 8 Wochen bonitiert man die Wurzeln auf Gallenbildung.

The test system of data set [4] is Moskito-Larven (Aedes aegypti). The experiment in a line: whole plant or invertebrate. As to conditions: 24 h, read-out: Mortalitätsrate.
The test system of data set [5] is Spinnmilben (Tetranychus telarius). Particulars: assessed after 6 days.
The subject of data set [6] is Moskito-Larven (Aedes aegypti). As to conditions: Wirkstoffkonzentration 1 ppm; 4th instar larvae, 20°C, after 24 hours.
Setting [7] is: Wirkstoffkonzentration 0,05 (unit not given).

On to `CCOP(=O)(SCc1csc(Cl)c1Cl)SCC(C)C` (stereo not drawn) [Wirkstoff I, O-Äthyl-S-isobutyl-S-(2,3-dichlor-thienyl-4-methyl)-dithiophosphat], for which, in data set [1], the mortality at 10 µg/mL is 80% and the mortality at 25 µg/mL was determined as 100%. The Mortalitätsrate in the data set on Blattläuse (Aphis fabae) (Wirkstoffkonzentration 0,02 (unit not given)) is 90%. The same compound showed a Mortalitätsrate in the data set on Blattläuse (Aphis fabae) (setting [7]) of 100%. In data set [2], the mortality at 0.02 % is 100% and the mortality at 0.05 % is 100%.

Take `CCOP(=O)(SCc1csc(Cl)c1Cl)SC(C)CC` (stereo not shown) [Wirkstoff III]: in data set [1], the mortality at 10 µg/mL was found to be 100% and the mortality at 25 µg/mL was determined as 100%. In addition, in data set [3] (Wirkstoffkonzentration 0,05 %), the Gallenbildung entry is “keine Gallenbildung”. In data set [2], the mortality at 0.01 % came to 100%, the mortality at 0.02 % turned out to be 100% and the mortality at 0.05 % was found to be 100%. Also, in data set [4], the mortality at 0.25 µg/mL stood at 100%, the mortality at 0.5 µg/mL came to 100% and the mortality at 1 µg/mL was 100%.

Regarding `CNC(=O)CSP(=S)(OC)OC` [Wirkstoff V1, 0,0-Dimethyl-S-(N-methyl-carbamoylmethyl)-phosphordi-thioat], the Gallenbildung result in data set [3] (Wirkstoffkonzentration 0,1 %) is “unwirksam”.

Take `CCOP(=S)(OCC)SCc1ccsc1` [Wirkstoff V2, 0,0-Diäthyl-S-(tienyl-4-methyl)-dithiophosphat, reference compound]: the Mortalitätsrate result (in data set [1]; in data set [5] (Wirkstoffkonzentration 0,05 %); in data set [6]; in the data set on Blattläuse (Aphis fabae) (setting [7])) was “unwirksam” in each case. Besides, in data set [3] (Wirkstoffkonzentration 0,1 %), the Gallenbildung result is on record as “unwirksam”. The mortality at 0.1 % in data set [2] was determined as 80%.

In the case of `CCOP(=S)(OCC)SCc1csc(Cl)c1Cl` [Wirkstoff V3, 0,0-Diäthyl-S-(2,3-dichlor-thienyl-4-methyl)-dithiophosphat], the Mortalitätsrate entry in data set [1], in data set [5] (Wirkstoffkonzentration 0,1 %) and in data set [6] was “unwirksam” throughout.
